According to the supplement of paper PMC10733146:

What was measured:
Test in all cases: viability relative to DMSO control (fraction); higher = less drug effect (more viable cells)
Details in all cases: 48 h
[1] = test system: primary AML patient cells (S089)
Method in brief: (§1)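 Viability was measured as CellTiter-Glo luminescence relative to the median of 16 inner DMSO wells. Primary mononuclear tumour cells, fresh or cryopreserved, were Ficoll-isolated from blood or bone marrow or taken from processed lymph node. They were seeded at 4 × 10^4 cells per well into 384-well plates holding pre-plated compounds at five concentrations, one well each, and kept in RPMI-1640 with penicillin/streptomycin, L-glutamine and human serum at 37 °C and 5% CO2 for 48 h.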

[2] = test system: primary MCL patient cells (S068)
Method in brief: as §1

[3] = test system: primary AML patient cells (S017)
Method in brief: as §1

[4] = test system: primary AML patient cells (S085)
Method in brief: as §1

[5] = test system: primary AML patient cells (S091)
Method in brief: as §1

[6] = test system: primary AML patient cells (S019)
Method in brief: as §1

[7] = test system: primary CLL patient cells (S031)
Method in brief: as §1

[8] = test system: primary BL patient cells (S005)
Method in brief: as §1

[9] = test system: primary MCL patient cells (S053)
Method in brief: as §1

[10] = test system: primary AML patient cells (S037)
Method in brief: as §1

[11] = test system: primary AML patient cells (S079)
Method in brief: as §1

[12] = test system: primary AML patient cells (S025)
Method in brief: as §1

[13] = test system: primary AML patient cells (S012)
Method in brief: as §1

[14] = test system: primary AML patient cells (S002)
Method in brief: as §1

[15] = test system: primary AML patient cells (S072)
Method in brief: as §1

[16] = test system: primary AML patient cells (S056)
Method in brief: as §1

[17] = test system: primary FL patient cells (S022)
Method in brief: as §1

[18] = test system: primary ALL patient cells (S048)
Method in brief: as §1

[19] = test system: primary AML patient cells (S071)
Method in brief: as §1

[20] = test system: primary CLL patient cells (S043)
Method in brief: as §1

Nc1ccn([C@@H]2O[C@H](CO)[C@@H](O)[C@@H]2O)c(=O)n1 [Cytarabine]
viability ([1]; 0.032 µM): 1.1
viability ([1]; 0.16 µM): 0.993
viability ([1]; 0.8 µM): 0.783
viability ([1]; 4 µM): 0.142
viability ([1]; 20 µM): 0.0678
viability ([2]; 0.032 µM): 1.1
viability ([2]; 0.16 µM): 1.01
viability ([2]; 0.8 µM): 0.807
viability ([2]; 4 µM): 0.38
viability ([2]; 20 µM): 0.209
viability ([3]; 0.032 µM): 1.11
viability ([3]; 0.16 µM): 1.07
viability ([3]; 0.8 µM): 1.15
viability ([3]; 4 µM): 0.665
viability ([3]; 20 µM): 0.303
viability ([4]; 0.032 µM): 1.1
viability ([4]; 0.16 µM): 1.02
viability ([4]; 0.8 µM): 0.925
viability ([4]; 4 µM): 0.372
viability ([4]; 20 µM): 0.106
viability ([5]; 0.032 µM): 0.974
viability ([5]; 0.16 µM): 0.858
viability ([5]; 0.8 µM): 0.694
viability ([5]; 4 µM): 0.513
viability ([5]; 20 µM): 0.409
viability ([6]; 0.032 µM): 1.19
viability ([6]; 0.16 µM): 1.15
viability ([6]; 0.8 µM): 0.871
viability ([6]; 4 µM): 0.387
viability ([6]; 20 µM): 0.24
viability ([7]; 0.032 µM): 1.15
viability ([7]; 0.16 µM): 1.04
viability ([7]; 0.8 µM): 0.706
viability ([7]; 4 µM): 0.177
viability ([7]; 20 µM): 0.0741
viability ([8]; 0.032 µM): 1.03
viability ([8]; 0.16 µM): 1.02
viability ([8]; 0.8 µM): 0.98
viability ([8]; 4 µM): 0.969
viability ([8]; 20 µM): 0.893
viability ([9]; 0.032 µM): 1.01
viability ([9]; 0.16 µM): 0.754
viability ([9]; 0.8 µM): 0.327
viability ([9]; 4 µM): 0.195
viability ([9]; 20 µM): 0.136
viability ([10]; 0.032 µM): 1.08
viability ([10]; 0.16 µM): 1.03
viability ([10]; 0.8 µM): 1.02
viability ([10]; 4 µM): 0.666
viability ([10]; 20 µM): 0.467
viability ([11]; 0.032 µM): 1.07
viability ([11]; 0.16 µM): 1.01
viability ([11]; 0.8 µM): 0.781
viability ([11]; 4 µM): 0.297
viability ([11]; 20 µM): 0.0864
viability ([12]; 0.032 µM): 1.02
viability ([12]; 0.16 µM): 0.877
viability ([12]; 0.8 µM): 0.649
viability ([12]; 4 µM): 0.324
viability ([12]; 20 µM): 0.112
viability ([13]; 0.032 µM): 0.99
viability ([13]; 0.16 µM): 0.927
viability ([13]; 0.8 µM): 0.985
viability ([13]; 4 µM): 0.935
viability ([13]; 20 µM): 0.602
viability ([14]; 0.032 µM): 1.04
viability ([14]; 0.16 µM): 0.899
viability ([14]; 0.8 µM): 0.607
viability ([14]; 4 µM): 0.317
viability ([14]; 20 µM): 0.26
viability ([15]; 0.032 µM): 1.14
viability ([15]; 0.16 µM): 1.06
viability ([15]; 0.8 µM): 0.995
viability ([15]; 4 µM): 0.774
viability ([15]; 20 µM): 0.458
viability ([16]; 0.032 µM): 1.05
viability ([16]; 0.16 µM): 1
viability ([16]; 0.8 µM): 0.719
viability ([16]; 4 µM): 0.177
viability ([16]; 20 µM): 0.0767
viability ([17]; 0.032 µM): 1.17
viability ([17]; 0.16 µM): 1.04
viability ([17]; 0.8 µM): 1.09
viability ([17]; 4 µM): 0.93
viability ([17]; 20 µM): 0.589
viability ([18]; 0.032 µM): 0.974
viability ([18]; 0.16 µM): 0.862
viability ([18]; 0.8 µM): 0.561
viability ([18]; 4 µM): 0.154
viability ([18]; 20 µM): 0.0402
viability ([19]; 0.032 µM): 0.891
viability ([19]; 0.16 µM): 0.797
viability ([19]; 0.8 µM): 0.64
viability ([19]; 4 µM): 0.257
viability ([19]; 20 µM): 0.172
viability ([20]; 0.032 µM): 1.1
viability ([20]; 0.16 µM): 0.975
viability ([20]; 0.8 µM): 0.707
viability ([20]; 4 µM): 0.236
viability ([20]; 20 µM): 0.0952
